In patent US20250288536A1, “PROTEIN PARTICLES INCLUDING AN ACTIVE AGENT AND METHODS OF MAKING AND USING THE SAME” (Dairy Mangement Inc., priority 2022, published 2025):
Where two headings read alike, the source gives them in different places.

Key:
[1] = Scanning electron microscopy (SEM) particle size; conditions: 1 mg/mL dispersion
[2] = Particle size by DLS before and after ultrasonication (Example 2); conditions: after ultrasonication

Molecule	change of antioxidant activity (ABTS) with HPH treatment (after vs before HPH)	ABTS radical scavenging activity (concentration of 0.5 mg/mL) [%]	particle size by SEM (dry state) ([1]; HPH sample) [nm]	particle size by SEM (dry state) ([1]; NOHPH sample) [nm]	change of antioxidant activity (ABTS) with HPH treatment (0.01 mg/mL)	ABTS radical scavenging activity (concentration above 0.1 mg/mL)	colloidal dispersion stability when adjusting pH to 7 [2]
α-lactalbumin	increased	20	~80	~40	–	–	–
N[C@@H](Cc1c[nH]c2ccccc12)C(=O)O [Trp, tryptophan]	–	–	–	–	increased	around 100%	remained stable
